Experimental data from patent publication US9359346B2, “Benzamide derivative and use thereof” (VIVOZON, INC., priority 2011, dated 2016).
Where two headings read alike, the source gives them in different places.

Tests used:
[1] = system: neuropathic pain model (Chung model); experiment: Neuropathic pain model (Chung model, SNL), paw withdrawal threshold; type: in vivo, rat; conditions: for pain suppression efficacy, antagonist alone: single administration, ORG-25543 10 or 20 mg/kg, FIG. 25(a)
formalin model = experiment: Formalin pain model, licking and shaking; type: in vivo, rat; conditions: for pain relieving effect, antagonist alone: single administration, FIG. 26(a); for pain behavior (licking and shaking) induced by formalin: 12.5, 25 and 50 mg/kg, 5% formalin i.pl., FIGS. 23 and 24
5HT2A = 5HT2A (Homo sapiens, UniProt P28223); experiment: FLIPR calcium assay for 5HT2A target activity (transfected HEK293 cells); type: cell-based
Chain of 5HT2A (P28223 whole entry, species assumed): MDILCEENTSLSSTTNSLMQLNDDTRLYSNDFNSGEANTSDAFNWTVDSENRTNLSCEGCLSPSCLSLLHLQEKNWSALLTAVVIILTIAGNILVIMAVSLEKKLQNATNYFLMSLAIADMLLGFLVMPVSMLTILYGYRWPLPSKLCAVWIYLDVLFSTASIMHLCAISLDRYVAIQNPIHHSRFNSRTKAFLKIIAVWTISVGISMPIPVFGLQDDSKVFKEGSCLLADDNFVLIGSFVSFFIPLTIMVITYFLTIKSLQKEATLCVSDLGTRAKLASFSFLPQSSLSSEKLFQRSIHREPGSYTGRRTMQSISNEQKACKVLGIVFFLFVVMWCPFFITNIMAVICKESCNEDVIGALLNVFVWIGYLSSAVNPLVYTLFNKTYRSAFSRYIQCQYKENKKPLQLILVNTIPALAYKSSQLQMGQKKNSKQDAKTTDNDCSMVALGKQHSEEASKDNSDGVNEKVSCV

GlyT2 = biological target: T1, GlyT2 (Rattus norvegicus, UniProt P58295); experiment: FLIPR membrane potential assay for GlyT2 target activity (T-rex-293-rGlyT2 cells); type: cell-based; conditions: read-out: GlyT2 % inhibition
T1 construct: expressed in transfected cells
T1 sequence (P58295 1-799): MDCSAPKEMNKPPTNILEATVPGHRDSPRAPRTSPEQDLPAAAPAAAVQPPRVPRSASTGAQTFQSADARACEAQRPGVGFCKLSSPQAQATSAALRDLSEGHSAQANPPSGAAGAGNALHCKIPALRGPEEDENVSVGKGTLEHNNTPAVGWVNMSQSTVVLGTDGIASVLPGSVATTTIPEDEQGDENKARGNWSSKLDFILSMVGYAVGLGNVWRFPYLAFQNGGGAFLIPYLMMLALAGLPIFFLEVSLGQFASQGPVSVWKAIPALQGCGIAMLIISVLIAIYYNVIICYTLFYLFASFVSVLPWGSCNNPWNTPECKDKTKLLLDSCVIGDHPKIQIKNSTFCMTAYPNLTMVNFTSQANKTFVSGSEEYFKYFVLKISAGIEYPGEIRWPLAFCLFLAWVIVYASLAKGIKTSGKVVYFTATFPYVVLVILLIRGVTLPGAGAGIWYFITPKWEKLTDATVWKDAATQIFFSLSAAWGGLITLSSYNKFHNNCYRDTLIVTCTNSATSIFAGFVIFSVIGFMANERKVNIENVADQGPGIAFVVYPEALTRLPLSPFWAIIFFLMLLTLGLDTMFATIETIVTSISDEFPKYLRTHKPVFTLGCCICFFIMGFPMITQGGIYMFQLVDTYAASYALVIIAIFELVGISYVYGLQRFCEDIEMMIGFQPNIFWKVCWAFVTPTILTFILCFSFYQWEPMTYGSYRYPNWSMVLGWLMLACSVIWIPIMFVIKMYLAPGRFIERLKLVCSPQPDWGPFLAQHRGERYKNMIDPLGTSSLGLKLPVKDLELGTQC
Method: GlyT2 (Glycine transporter type 2) is an electrogenic carrier associated with Na^+/Cl^− ion transportation, primarily distributed around the spinal cord part, and has an important role in the transfer of a pain signal in the spinal cord.
In order to identify the fact that the novel compound of the present invention has GlyT2 targeting activity, a membrane potential assay was performed. FLIPR Membrane Potential Assay is used to measure ion channel modulation caused by an increase or decrease in fluorescence signal due to variations of cellular membrane potential.
First, pcDNA4/TO vector encoding GlyT2 of the rat in HEK293 cell was transfected to prepare a stable recombinant cell line, i.e., T-rex-293-rGlyT2. A […] (Greiner #655090) coated with poly-D-lysine was prepared, and the above recombinant cells (T-rex-293-rGlyT2) were seeded at 3.2×10^4/well therein using a medium containing 15 μg/ml of tetracycline. After this, incubation was conducted at 37° C. for 48 hours under 5% CO2 conditions to express GlyT2. 10 ml of assay buffer (1×HBSS, 20 mM HEPES, pH 7.4) was added to a blue dye solution and sufficiently dissolved therein to prepare a membrane potential dye solution. After removing the medium from the well showing GlyT2 expression, the membrane potential dye solution was added to the well in an amount of 100 μl/well and incubated for 20 minutes.
According to the FLIPR Membrane Potential Assay kit's protocol, SoftMax Pro Software of FlexStation 3 software (Molecular Devices, US) was set up. An extent of GlyT2 expression was determined such that the extent of cellular membrane depolarization relative to an administered amount of glycine during glycine treatment is indicated in relative fluorescence units (RFU), and RFU (Max-Min) is calculated by subtracting the minimum value from the maximum value of RFU. After firstly treating 10 uM of the novel compound according to the present invention, glycine was treated and RFU (Max-Min) for glycine administration was determined. Then, with the determined result, the extent of depolarization inhibition (% inhibition) was assessed for each compound, compared to a positive control.
The positive control used herein was ORG25543 (500 nM) having strong inhibitory efficacy specific to GlyT2.
For GlyT2 inhibitory efficacy, the efficacy of the compound ORG25543 (500 nM) was defined as 100%. Similarly, for 5HT2A inhibitory efficacy, the efficacy of MDL11939 (100 nM) was defined as 100%. Therefore, the target inhibitory efficacy of each compound was indicated in a relative value compared to the above defined efficacy.

[2] = system: serotonin-derived itching; experiment: Itching model, serotonin-derived itching; type: in vivo, rat; conditions: 50 mg/kg s.c.; serotonin 25 μg/50 μl intradermal; vs naloxone 5 mg/kg intraperitoneal
[3] = system: poly-L-arginine-derived itching; experiment: Itching model, poly-L-arginine-derived itching; type: in vivo, rat; conditions: 50 mg/kg s.c.; poly-L-arginine 200 μg/50 μl intradermal; vs naloxone 5 mg/kg intraperitoneal
[4] = subcutaneous 50 mg/kg or oral 100 mg/kg, gabapentin 55 to 70 mg/kg intraperitoneal, FIGS. 1 to 22
[5] = HEK293, 10 uM compound, then serotonin, relative to MDL11939 (100 nM) defined as 100%, read-out: 5HT2A % inhibition
[6] = 10 uM compound, then glycine, relative to ORG25543 (500 nM) defined as 100%
[7] = HEK293, read-out: 5HT2A % inhibition

SMILES: COc1cc(C(=O)NCC2(N(C)C)CCCC2)cc(OC)c1OCc1ccccc1 [ORG-25543, reference compound]
- pain suppression efficacy, antagonist alone [1]: did not show pain suppression efficacy
- pain suppression efficacy, antagonist alone ([1]; listed as ORG2553): no or very little pain relieving effect
- pain relieving effect, antagonist alone (formalin model): no or very little pain relieving effect

SMILES: CCCCOc1c(OC)cc(C(=O)NCC2(N(C)CC)CCOCC2)cc1OC [VVZ-041]
- analgesic efficacy compared to GBP positive control [1, 4]: analgesic efficacy substantially equal to 0 °C superior to GBP
- inhibition at 10 µM (5HT2A; [5]): 105%
- inhibition at 10 µM (GlyT2; [6]): 79.2%

SMILES: OC(c1ccccc1)C1CCN(CCc2ccccc2)CC1 (centres unmarked) [MDL 11,939, reference compound]
- pain suppression efficacy, antagonist alone [1]: no or very little pain relieving effect
- pain relieving effect, antagonist alone (formalin model): no or very little pain relieving effect

SMILES: CCCCOc1c(OC)cc(C(=O)NCC2(N(C)C)CCOCC2)cc1OC [VVZ-005]
- analgesic efficacy compared to GBP positive control ([1]; rat, in vivo): analgesic efficacy substantially equal to 0 °C superior to GBP
- pain behavior (licking and shaking) induced by formalin (formalin model): suppressing pain behavior induced by formalin
- inhibition at 10 µM (5HT2A; [7]): 61.2%
- itching behavior (number and duration of scratching) induced by serotonin [2]: suppressing itching behavior
- itching behavior (number and duration of scratching) induced by poly-L-arginine [3]: suppressing itching behavior
- inhibition at 10 µM (GlyT2): 101%

SMILES: CCCCOc1c(OC)cc(C(=O)NCC(c2ccc(OC)cc2)N(C)C)cc1OC (centres unmarked) [VVZ-024]
- analgesic efficacy compared to GBP positive control [1, 4]: analgesic efficacy substantially equal to 0 °C superior to GBP
- inhibition at 10 µM (5HT2A; [7]): 70.5%
- inhibition at 10 µM (GlyT2; [6]): 96.7%

SMILES: CCCCOc1c(OC)cc(C(=O)NCC2(NC)CCOCC2)cc1OC [VVZ-068]
- analgesic efficacy compared to GBP positive control [1, 4]: analgesic efficacy substantially equal to 0 °C superior to GBP
- pain behavior (licking and shaking) induced by formalin (formalin model): suppressing pain behavior induced by formalin
- inhibition at 10 µM (5HT2A; [5]): 69.1%
- itching behavior (number and duration of scratching) induced by serotonin [2]: suppressing itching behavior
- itching behavior (number and duration of scratching) induced by poly-L-arginine [3]: suppressing itching behavior
- inhibition at 10 µM (GlyT2; [6]): 105%
